Assay: Preliminary solubility tests
Assay type: physicochemical
Details: preliminary solubility tests for both compounds

CC(=O)N(C(C)=O)C1=C(Cl)C(=O)c2ccccc2C1=O [Zapp88, 2-chloro-3-diacetylamino-1,4-naphthoquinone]
hydrophobicity compared with paclitaxel: more hydrophobic

From patent US8772355B2, “Stealth polymeric particles for delivery of bioactive or diagnostic agents” (Howard University, priority 2010, dated 2014)
